“And” between values parts separate entries of the source, which are not always exact repeats. Identical values can stand only once.
Legend:
[1] = Example 2: subjective muscle aches and laboratory tests; format: in vivo, human; conditions: one basket ball player
Procedure: (§1) A basket ball player (weight 83.7 kg; BMI 26.8 kg/m^2) took after intensive daily training sessions 0.496 g of HICA three times a day for 42 days in an identical design as described in Example 1. The composition of their soft tissue was analyzed in detail. DEXA-results were analyzed by a software discriminating successfully between bone, fat and lean body mass.

[2] = Example 1: open 42-day study in top wrestlers, body weight and body composition by DEXA; format: in vivo, human; conditions: individual subjects 1-7; after 42 days, 0.496 g thrice daily orally
[3] = Example 2: basket ball player case study, body composition by DEXA; format: in vivo, human
Procedure: as §1

[4] = Example 1: open 42-day study in top wrestlers, body weight and body composition by DEXA; format: in vivo, human
Text: (§2) In order to assess the effects of HICA (α-hydroxy-isocaproic acid) on exercise induced muscle pain and body composition, 0.496 g of HICA (produced in VTT Technical Research Centre of Finland, Helsinki) was given thrice daily after intensive training sessions to 7 healthy volunteers for 42 days in an open study. The volunteers were national top wrestlers, weighing 79.7+/−4.5 kg (mean+/−SD) and aging 26+/−6 years (mean+/−SD). They had at least 10 training sessions a week, each lasting from 1.5 to 2.5 hours. During 6 weeks preceding the HICA period there were no essential changes in the body weight of the wrestlers. At least for 6 weeks before and during the trial daily diets and the number, intensity, and length of daily training sessions were kept constant. Before the study the subjects underwent a medical examination. Twenty ml of blood was taken for chemical assays and the body weight and body composition were assessed by dual-energy X-ray absorptiometry (DEXA; LUNAR GE Medical Systems) just before starting the 42-day HICA intake. The subjects took HICA orally as liquid (62.5 g HICA dissolved in 630 ml water and buffered by NaOH to pH 3.8). The single dose taken three times a day after each training session was 5 ml (containing […] of HICA) of the solution mixed with apple juice. On those days they had less than three training session they took extra doses of HICA so that 3 doses were taken each day. The total daily dose was 1488 mg of HICA.

[5] = commercially available colorless crystals; cited from earlier work
[6] = Example 1: subjects' reports of muscle pain, stiffness, aches, power performance and adverse effects; format: in vivo, human
Text: In order to assess the effects of HICA (α-hydroxy-isocaproic acid) on exercise induced muscle pain and body composition, 0.496 g of HICA (produced in VTT Technical Research Centre of Finland, Helsinki) was given thrice daily after intensive training sessions to 7 healthy volunteers for 42 days in an open study. The volunteers were national top wrestlers, weighing 79.7+/−4.5 kg (mean+/−SD) and aging 26+/−6 years (mean+/−SD). They had at least 10 training sessions a week, each lasting from 1.5 to 2.5 hours.
The subjects took HICA orally as liquid (62.5 g HICA dissolved in 630 ml water and buffered by NaOH to pH 3.8). The single dose taken three times a day after each training session was 5 ml (containing […] of HICA) of the solution mixed with apple juice. On those days they had less than three training session they took extra doses of HICA so that 3 doses were taken each day. The total daily dose was 1488 mg of HICA.
Subjects were asked to report all feelings they would associate with the treatment with HICA, e.g. pain, stiffness or aches in muscles felt during and after the training sessions.

[7] = Example 1: blood pressure, heart rate and clinical chemistry before and after HICA; format: in vivo, human; conditions: n = 7, after 42 days
Text: as §2, with “hours.” for “hours. During 6 weeks preceding the HICA period there were no essential changes in the body weight of the wrestlers. At least for 6 weeks before and during the trial daily diets and the number, intensity, and length of daily training sessions were kept constant.”

mice = conditions: iv. in mice, Na-salt; cited from earlier work
[8] = Barlas et al.; 11-day study period, 60 study subjects; cited from earlier work
[9] = Trappe et al. 2002; cited from earlier work
[10] = after vs before 42-day treatment
[11] = one basketball player, after 42-day treatment
[12] = individual subjects 1-7, after 42 days
[13] = individual subjects 1-7, after 42 days, DEXA
[14] = mean of 7 subjects, after 42 days, P < 0.05 vs before

## CC(C)CC(O)C(=O)O (racemic) [HICA, DL-α-hydroxy-isocaproic acid]
[1]; 42 days
  exercise related muscle aches and pains (subjective report): disappearance of all exercise related muscle aches and pains
[1]; data not shown
  laboratory tests, e.g. blood pressure, heart rate or blood analyses: no changes
[2]
  Whole body weight, After HICA: 79.1 kilograms and 88.1 kilograms and 75.2 kilograms and 77.6 kilograms and 79.3 kilograms and 79 kilograms and 85.7 kilograms
[3]; DEXA, one basket ball player, 42 days
  gain of lean body mass during the treatment: 2.65 kg
[3]; [10]
  bone, Change: +0.0 g
  fat, Change: 0.3 kg
  lean, extremities, Change: 1.6 kg
  lean, other, Change: +0.0 g
  lean, total, Change: +2.7 g
  lean, trunk, Change: 1 kg
  weight, Change: 3 kg
[3]; [11]
  bone, After HICA: 4.1 kg
  fat, After HICA: 8.1 kg
  lean, extremities, After HICA: 34.8 kg
  lean, other, After HICA: 4.3 kg
  lean, total, After HICA: 74.4 kg
  lean, trunk, After HICA: 35.45 kg
  weight, After HICA: 86.6 kg
[4]; 42-day treatment, 7 subjects
  change of bone weight (DEXA): not changed
[4]; 42-day treatment, P<0.05, paired t-test
  change of total soft tissue mass (total weight - bone weight): increased significantly
[4]; 42-day treatment, P<0.05 and P<0.001, respectively
  change of soft tissue masses of all extremities and trunk: increased significantly
[4]; [12]
  Total weight of soft tissue in extremities, After HICA: 33.2 kilograms and 35.7 kilograms (2×) and 34.7 kilograms and 38.5 kilograms and 35.2 kilograms and 39.0 kilograms
  Total weight of soft tissue in trunk, After HICA: 38.0 kilograms and 38.3 kilograms and 39.7 kilograms and 40.4 kilograms and 43.1 kilograms and 39.8 kilograms and 44.8 kilograms
[4]; [13]
  Bone weight, After HICA: 4.1 kilograms (2×) and 4.4 kilograms and 4.0 kilograms (2×) and 3.6 kilograms and 3.9 kilograms
  Soft tissue weight, After HICA: 75.0 kilograms and 83.7 kilograms and 71.2 kilograms and 74.0 kilograms and 75.4 kilograms and 75.1 kilograms and 81.6 kilograms
[4]; mean of 7 subjects, after 42 days, P < 0.001 vs before
  Total weight of soft tissue in trunk, After HICA, mean: 40.6 kilograms
[4]; [14]
  Soft tissue weight, After HICA, mean: 76.6 kilograms
  Total weight of soft tissue in extremities, After HICA, mean: 36.0 kilograms
  Whole body weight, After HICA, mean: 80.57 kilograms
[4]; mean of 7 subjects, after 42 days, nonsignificant vs before
  Bone weight, After HICA, mean: 4.0 kilograms
[4]; mean+/-SD, 7 subjects, 42-day treatment, P<0.05 paired t-test
  mean weight gain during the treatment period: 0.8 kg and 0.84 ± 1.0 kg
[5]
  solubility: soluble in water and alcohols
[6]; 42-day treatment, 7 top athletes
  adverse effects: without any adverse effects
[6]; all 7 subjects, 42-day treatment
  pain, stiffness and aches in muscles felt during and after the training sessions (subjects' reports): abolishment of pain, stiffness and aches in muscles
[6]; subjective, after the treatment with HICA
  subjects reporting enhanced power performance: 6 out of 7
[7]; NS
  B-Erythrocytes, After HICA, mean: 4.9 E12/l
  B-Hematocrite, After HICA, mean: 42.6%
  B-Hemoglobin, After HICA, mean: 149.1 g/L
  B-Leucocytes, After HICA, mean: 5.7 E9/l
  E-MCH, After HICA, mean: 30.4 pg
  E-MCHC, After HICA, mean: 347.9 g/L
  E-MCV, After HICA, mean: 87.4 fL
  S-Alanine amino transferase, After HICA, mean: 31.6 U/l
  fS-Creatinine, After HICA, mean: 89.2 µM
  heart rate, After HICA, mean: 62.0 min⁻¹
[7]; P < 0.01 vs before
  diastolic blood pressure, After HICA, mean: 75.7 mmHg
[7]; P < 0.05 vs before
  systolic blood pressure, After HICA, mean: 139.7 mmHg
mice
  LD50: 650 mg/kg

## CC(=O)Oc1ccccc1C(=O)O [aspirin]
[8]
  effect on delayed-onset muscle soreness induced by eccentric exercise: neither aspirin, paracetamol nor codeine had a beneficial effect

## COc1ccc2c3c1O[C@H]1[C@@H](O)C=C[C@H]4[C@@H](C2)N(C)CC[C@@]341 [codeine]
[8]
  effect on delayed-onset muscle soreness induced by eccentric exercise: neither aspirin, paracetamol nor codeine had a beneficial effect

## CC(C)Cc1ccc(C(C)C(=O)O)cc1 (centres unmarked) [ibuprofen]
[9]
  effect on eccentric resistant training induced muscle soreness: Neither ibuprofen nor paracetamol reduced eccentric resistant training induced muscle soreness

## CC(=O)Nc1ccc(O)cc1 [paracetamol]
[9]
  effect on eccentric resistant training induced muscle soreness: Neither ibuprofen nor paracetamol reduced eccentric resistant training induced muscle soreness
[8]
  effect on delayed-onset muscle soreness induced by eccentric exercise: neither aspirin, paracetamol nor codeine had a beneficial effect

Source: patent US20080108698A1, “Nutrient Supplement and Use of the Same” (OY ELMOMED LTD, priority 2004, published 2008)
